Test results reported in patent US8835440B2, “Cyclic pyrimidin-4-carboxamides as CCR2 receptor antagonists for treatment of inflammation, asthma and COPD” (Boehringer Ingelheim International GmbH, priority 2008, dated 2014).

Molecular target: T1, CCR2 (Homo sapiens, UniProt P41597)
T1 construct: Membranes were prepared from THP-1 cells; endogenous in cells; host or cells: THP-1 cells (membrane preparation)
T1 sequence (P41597 1-360 isoform P41597-2): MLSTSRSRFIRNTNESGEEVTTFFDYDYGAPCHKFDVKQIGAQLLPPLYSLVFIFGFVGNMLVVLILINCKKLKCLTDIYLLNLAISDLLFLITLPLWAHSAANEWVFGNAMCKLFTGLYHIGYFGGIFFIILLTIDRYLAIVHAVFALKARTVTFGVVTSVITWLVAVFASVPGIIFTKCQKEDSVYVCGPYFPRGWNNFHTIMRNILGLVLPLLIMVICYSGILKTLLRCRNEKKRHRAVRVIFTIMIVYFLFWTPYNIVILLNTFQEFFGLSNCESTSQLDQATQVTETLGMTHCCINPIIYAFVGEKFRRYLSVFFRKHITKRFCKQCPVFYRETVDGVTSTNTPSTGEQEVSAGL
Test: CCR2 receptor membrane binding assay ([125I]MCP-1, THP-1 cell membranes, SPA beads)
Details: for remaining activity at 10 µM: @ 10 μM test compound, THP-1 membranes, read-out: CCR2 % ctrl @ 10 μM; for Ki: dissociation constant hKi, [125I]MCP-1 binding to THP-1 membranes
Summary of the method: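 Human THP-1 monocytic cell membranes, pre-coupled to WGA-PVT SPA beads, were incubated with compound and [125I]MCP-1 (ca. 25000 cpm) in 25 mM HEPES pH 7.2, 5 mM MgCl2, 0.5 mM CaCl2, 0.2% BSA, at 1% DMSO final. Bound radioactivity was counted after 8 h, and Ki was obtained by iterative mass-action fitting.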

Structure (SMILES)	remaining activity at 10 µM [%]	Ki [µM]
Cc1c(NCc2ccc(C(C)(C)C)cc2)ncnc1C(=O)N1CCC(N2CCC(c3ccncc3)CC2)CC1 [Example 201]	6	0.101
Cc1c(NCc2ccc(C(C)(C)C)cc2)ncnc1C(=O)N1CCC(N2CCC(C#N)CC2)CC1 [Example 202]	7	0.292
Cc1c(NCc2ccc(C(C)(C)C)cc2)ncnc1C(=O)N1CCC(N2CCC(Oc3ccc(F)c(F)c3)CC2)CC1 [Example 203]	11	0.641
Cc1c(NCc2ccc(C(C)(C)C)cc2)ncnc1C(=O)N1CCC(N2CCC(Oc3ccccn3)CC2)CC1 [Example 204]	6	0.123
Cc1c(NCc2ccc(C(C)(C)C)cc2)ncnc1C(=O)N1CCC(N2CCC(NS(=O)(=O)C(C)C)CC2)CC1 [Example 205]	11	0.135
CCN(C1CCN(C2CCN(C(=O)c3ncnc(NCc4ccc(C(C)(C)C)cc4)c3C)CC2)CC1)S(C)(=O)=O [Example 206]	3	0.044
Cc1nc(NCc2ccc(C(C)(C)C)cc2)c(C)c(C(=O)N2CCC(N3CCC(S(=O)(=O)N(C)C)CC3)CC2)n1 [Example 207]	35	1.18
COC1CCN(C2CCN(C(=O)c3ncnc(NCc4ccc(C(C)(C)C)cc4)c3C)CC2)CC1 [Example 208]	7	0.099
Cc1c(NCc2ccc(C(C)(C)C)cc2)ncnc1C(=O)N1CCC(N2CCOC(C)C2)CC1 (centres unmarked) [Example 209]	7	0.177
Cc1c(NCc2ccc(C(C)(C)C)cc2)ncnc1C(=O)N1CCC(N2CCC(c3ccccc3)C2)CC1 (centres unmarked) [Example 210]	0	0.083
CCC(C)NC(=O)C1CCN(C2CCN(C(=O)c3ncnc(NCc4ccc(C(C)(C)C)cc4)c3C)CC2)CC1 (centres unmarked) [Example 211]	5	0.14
Cc1c(NCc2ccc(C(C)(C)C)cc2)ncnc1C(=O)N1CCC(N2CCC(n3c(C)nnc3C)CC2)CC1 [Example 212]	24	0.731
Cc1noc(C2CCN(C3CCN(C(=O)c4ncnc(NCc5ccc(C(C)(C)C)cc5)c4C)CC3)CC2)n1 [Example 213]	14	0.43
CNC(=O)C[C@H]1CCCN1C1CCN(C(=O)c2ncnc(NCc3ccc(C(C)(C)C)cc3)c2C)CC1 [Example 214]	20	0.711
CNC(=O)C[C@@H]1CCCN1C1CCN(C(=O)c2ncnc(NCc3ccc(C(C)(C)C)cc3)c2C)CC1 [Example 215]	42	2.15
Cc1c(NCc2ccc(C(C)(C)C)cc2)ncnc1C(=O)N1CCC(N2CCC[C@@H]2CC(=O)N(C)C)CC1 [Example 216]	59	4.28
Cc1c(NCc2ccc(C(C)(C)C)cc2)ncnc1C(=O)N1CCC(N2CCC[C@H]2CC(=O)N(C)C)CC1 [Example 217]	54	4.33
Cc1c(NCc2ccc(C(C)(C)C)cc2)ncnc1C(=O)N1CCC(N2CC(C)OC(C)C2)CC1 (centres unmarked) [Example 218]	8	0.281
CO[C@@H]1CCN(C2CCN(C(=O)c3ncnc(NCc4ccc(C(C)(C)C)cc4)c3C)CC2)C1 [Example 219]	22	0.476
CO[C@H]1CCN(C2CCN(C(=O)c3ncnc(NCc4ccc(C(C)(C)C)cc4)c3C)CC2)C1 [Example 220]	27	0.979
CNS(=O)(=O)C1CCN(C2CCN(C(=O)c3ncnc(NCc4ccc(C(C)(C)C)cc4)c3C)CC2)CC1 [Example 221]	12	0.172
Cc1c(NCc2ccc(C(C)(C)C)cc2)ncnc1C(=O)N1CCC(N2CC(N(C)S(C)(=O)=O)C2)CC1 [Example 222]	31	1.31
Cc1c(NCc2ccc(C(C)(C)C)cc2)ncnc1C(=O)N1CCC(N2CC(NS(C)(=O)=O)C2)CC1 [Example 223]	14	0.244
CNC(=O)C1(C)CCN(C2CCN(C(=O)c3ncnc(NCc4ccc(C(C)(C)C)cc4)c3C)CC2)CC1 [Example 224]	35	1.23
Cc1c(NCc2ccc(C(C)(C)C)cc2)ncnc1C(=O)N1CCC(N2CCC(c3ccccc3)CC2)CC1 [Example 225]	0	0.021
Cc1c(NCc2ccc(Cl)c(Cl)c2)ncnc1C(=O)N1CCC(N2CC[C@H](N(C)S(C)(=O)=O)C2)CC1 [Example 226]	36	1.17
CO[C@@H]1CN(C2CCN(C(=O)c3ncnc(NCc4ccc(Cl)c(Cl)c4)c3C)CC2)CC[C@H]1N(C)S(C)(=O)=O [Example 227]	22	0.333
Cc1c(NCc2ccc(Cl)c(Cl)c2)ncnc1C(=O)N1CCC(N2CCC(S(N)(=O)=O)CC2)CC1 [Example 228]	16	0.331

Structure (SMILES)	remaining activity at 10 µM [%]	Ki [µM]
Cc1c(NCc2ccc(C(C)(C)C)cc2)ncnc1C(=O)N1CCC(N(C)C2CCCOC2)CC1 (centres unmarked) [Example 228a]	9	1.56
COC1COCCC1NC1CCN(C(=O)c2ncnc(NCC3CCC[C@@H](c4ccccc4)C3)c2C)CC1 (some centres unmarked) [Example 228b]	4	0.002
COC1COCCC1NC1CCN(C(=O)c2ncnc(NCc3ccc(C(C)(C)C)cc3)c2C)CC1 (centres unmarked) [Example 228c]	0	0.029
Cc1c(NCc2ccc(C(C)(C)C)cc2)ncnc1C(=O)N1CCC(NC2CCOCC2F)CC1 (centres unmarked) [Example 228d]	1	0.091
CCOC(=O)N1CCC(NC2CCN(C(=O)c3ncnc(NCc4ccc(C(C)(C)C)cc4)c3C)CC2)C(OC)C1 (centres unmarked) [Example 228e]	40	3.72
Cc1c(NCc2ccc(C(C)(C)C)cc2)ncnc1C(=O)N1CCC(NC2CCOc3ccccc32)CC1 (centres unmarked) [Example 228f]	1	0.015
COC1CC(F)(F)CCC1NC1CCN(C(=O)c2ncnc(NCc3ccc(C(C)(C)C)cc3)c2C)CC1 (centres unmarked) [Example 228g]	6	0.169
CO[C@@H]1COCC[C@@H]1NC1CCN(C(=O)c2ncnc(NCc3ccc(C(C)(C)C)cc3)c2C)CC1 [Example 228ga]	–	0.023
CC(=O)N1CCC[C@@H](NC2CCN(C(=O)c3ncnc(NCc4ccc(C(C)(C)C)cc4)c3C)CC2)C1 [Example 228gc]	–	0.561
Cc1c(NCc2ccc(C(C)(C)C)cc2)ncnc1C(=O)N1CCC(N[C@@H]2CCCN(S(C)(=O)=O)C2)CC1 [Example 228gd]	–	1.09
Cc1c(NCc2ccc(C(C)(C)C)cc2)ncnc1C(=O)N1CCC(N2CCC(COc3ccccc3)C2)CC1 (centres unmarked) [Example 228ge]	–	0.037
Cc1c(NCc2ccc(C(C)(C)C)cc2)ncnc1C(=O)N1CCC(N2CCC(Cc3cccnc3)C2)CC1 (centres unmarked) [Example 228gf]	–	0.145
Cc1c(NCc2ccc(C(C)(C)C)cc2)ncnc1C(=O)N1CCC(N2CCc3ncc(C(F)(F)F)cc3C2)CC1 [Example 228gg]	–	1.03
Cc1c(NCc2ccc(C(C)(C)C)cc2)ncnc1C(=O)N1CCC(NCC2CCCCO2)CC1 (centres unmarked) [Example 228gh]	–	4.07
Cc1c(NCc2ccc(C(C)(C)C)cc2)ncnc1C(=O)N1CCC(NC2CCOc3cccnc32)CC1 (centres unmarked) [Example 228gi]	–	1.1
Cc1c(NCc2ccc(C(C)(C)C)cc2)ncnc1C(=O)N1CCC(N2CCC3(CC2)CNC(=O)O3)CC1 [Example 228gj]	–	0.055
Cc1c(NCc2ccc(C(C)(C)C)cc2)ncnc1C(=O)N1CCC(N2CCC(c3ccc(C#N)cc3)CC2)CC1 [Example 228gk]	–	0.044
Cc1c(NCc2ccc(C(C)(C)C)cc2)ncnc1C(=O)N1CCC(N2CCC(Cc3ccc(F)c(F)c3)CC2)CC1 [Example 228gl]	–	0.537
Cc1c(NCc2ccc(C(C)(C)C)cc2)ncnc1C(=O)N1CCC(N2C3CCC2CC(O)C3)CC1 (centres unmarked) [Example 228gm]	–	0.028
CO[C@@H]1COCC[C@H]1NC1CCN(C(=O)c2ncnc(NCc3ccc(C(C)(C)C)cc3)c2C)CC1 [Example 228gn]	–	0.333
Cc1c(NCc2ccc(C(C)(C)C)cc2)ncnc1C(=O)N1CCC(NC2CCOCC2n2ncnn2)CC1 (centres unmarked) [Example 228gp]	–	1.35
COC1COCCC1N(C)C1CCN(C(=O)c2ncnc(NCC3CCC[C@@H](c4ccccc4)C3)c2C)CC1 (some centres unmarked) [Example 228h]	0	0.005
CO[C@@H]1COCC[C@@H]1N(C)C1CCN(C(=O)c2ncnc(NCc3ccc(C(C)(C)C)cc3)c2C)CC1 [Example 228ha]	–	0.032
Cc1c(NCCc2ccc(Cl)c(Cl)c2)ncnc1C(=O)N1CCC(N2CCC[C@H](O)C2)CC1 [Example 229]	39	1.13
CC(=O)N1CCN(C2CCN(C(=O)c3ncnc(NCCc4ccc(Cl)c(Cl)c4)c3C)CC2)CC1 [Example 230]	45	1.84
Cc1c(NCCc2ccc(Cl)c(Cl)c2)ncnc1C(=O)N1CCC(N2CCC[C@@H](O)C2)CC1 [Example 231]	15	0.215
Cc1c(NCCc2ccc(Cl)c(Cl)c2)ncnc1C(=O)N1CCC(N2CC[C@@H](C(N)=O)C2)CC1 [Example 232]	34	0.924
